Laboratory results published in US5665769A, “Pharmaceutical composition for preventing and treating retinal diseases” (Senju Pharmaceuticals Co., Ltd., priority 1993, dated 1997).
“And” between values parts separate entries of the source, which are not always exact repeats. Equal entries are not always repeated.

Assays:
[1] = tested on: bovine retinal homogenate; test: Ferrous chloride-induced peroxidation of bovine retinal homogenate in vitro, TBA value (Experiment 1 (A)); type: biochemical; conditions: 10^-4 M
Procedure: (A) In vitro experiment using a bovine retinal homogenate:
Effects of 2-O-octadecylascorbic acid on the peroxidation induced by adding ferrous chloride to a bovine retinal homogenate were examined.
(1) Retinae were removed from bovine eyeballs (1/2 eye). Physiological saline was added to the retinae to prepare bovine retinal homogenates.
(2) Ferrous chloride (0.5 mM, dissolved in distilled water) was added to each of the retinal homogenates obtained in the above. Further, 2-O-octadecylascorbic acid and α-tocopherol were added to the resulting homogenates to final concentrations of the reaction mixtures of 10^-4 M, respectively. Further, distilled water was added to each of the homogenates to adjust a total volume to 1 ml. 2-O-octadecylascorbic acid and α-tocopherol were dissolved and diluted with ethanol. Thus, the final concentrations of ethanol in all of the reaction mixtures were adjusted to 1%. Then, the mixtures were subjected to reaction at 37° C. for 1 hour.
(3) 0.35% thiobarbituric acid (hereinafter referred to as TBA) reagent (50% aqueous acetic acid solution)(1 ml) was added to the reaction mixtures or standard solutions of the retinal homogenates obtained in the above (2). The mixtures were subjected to reaction in boiling water at 100° C. for 1 hour. After water cooling, n-butanol (2 ml) was added, and the mixtures were shaken for 5 minutes and centrifuged at 3000 rpm for 10 minutes. Fluorescence intensities (excitation wave length: 515 nm, emission wave length: 553 nm) were determined for the n-butanol layer. Proteins were determined using Bio-Rad Protein Assay Kit (trade name).

retina (ERG in rats) = test: ERG changes induced by intravitreous injection of ferrous sulfate in rats (Experiment 1 (B-2)); type: in vivo, SD rats; conditions: 30 mg/kg oral
Description: FIG. 1 is a graph showing the a-wave amplitude of ERG in rats after intravitreous injection of ferrous ion in Experiment 1 (B-2). The abscissa indicates time (hour) and the ordinate indicates percentage (%) relative to the initial amplitude. In FIGS. 1 to 5, the compound (I) is 2-O-octadecylascorbic acid. FIG. 2 is a graph showing the b-wave latency of ERG in rats after intravitreous injection of ferrous ion in Experiment 1 (B-2). The abscissa indicates time (hour) and the ordinate indicates percentage (%) relative to the initial amplitude. FIG. 3 is a graph showing the b-wave amplitude of ERG in rats after intravitreous injection of ferrous ion in Experiment 1 (B-2). The abscissa indicates time (hour) and the ordinate indicates percentage (%) relative to the initial amplitude. (B-2) Evaluation by Electroretinogram (hereinafter referred to as ERG) determination Effects of oral administration of 2-O-octadecylascorbic acid (30 mg/kg) on the changes of ERG induced by intravitreous injection of ferrous sulfate in rats were examined. Twelve SD rats (7 weeks old) were fasted from the previous day. A 7.5 mM ferrous sulfate (5 μl) solution was injected intravitreously into each of the left eyes. A 1.5% suspension of 2-O-octadecylascorbic acid (30 mg/kg) or a 5% solution of gum arabic (control) was firstly administered orally 2 hours before the ferrous ion injection, and thereafter administered three times every 3 hours and then three times every 5 hours. ERG was determined 6, 9 and 24 hours after the ferrous ion injection and evaluated for the latency and amplitude of a-wave and b-wave.

retina (rat) [2] = test: Retinal light damage in rats, histopathology and retinal thickness (Experiment 2 (B-1)); type: in vivo; parameters: key to Vacuolation of retinal pigment epithelium / Disarrangement or vacuolation of inner and outer segments of visual cells / Infiltration of macrophage / Pyknosis and nuclear disappearance in outer nuclear layer / Thinning of retinal entire layer: -: not observable; ±: slightly observable; +: observable; ++: remarkably observable; conditions: for Vacuolation of retinal pigment epithelium / Disarrangement or vacuolation of inner and outer segments of visual cells / Infiltration of macrophage / Pyknosis and nuclear disappearance in outer nuclear layer / Thinning of retinal entire layer: one line per animal
Procedure: (B) In vivo experiment by light exposure in rats
(B-1) Evaluation by retinal pathological tissues and rhodopsin amount
Rats were subjected to dark adaptation for 72 hours. Then the rats were irradiated continuously for 12 hours using a green fluorescent lamp (10 W, 490-580 nm), the illumination intensity of which was adjusted to 2000 to 2400 lux. A suspension of 1.5% or 5.0% 2-O-octadecylascorbic acid was orally administered three times a day (90, 300 mg/kg/day) on the day of light exposure, and once a day (30, 100 mg/kg/day) after that. To the control group was administered 5.0% gum arabic solution (control) according to the same schedule. After completion of the light exposure, the rats were reared in a dark room and sacrificed on the 5th day. The right eyes were marked with ink in the upper part and fixed with 2% paraformaldehyde and 2% glutaraldehyde solutions. Histopathological evaluation was made using a light microscope and the thickness of retinae (thickness of retinal entire layer and outer nuclear layer) was measured. The left eyes were stored under freezing conditions at -20° C. for rhodopsin determination after removal of the cornea, lens and vitreous body.

retina (rat) [3] = test: Retinal peroxidation induced by intravitreous injection of ferrous sulfate in rats, retinal TBA values (Experiment 1 (B-1)); type: in vivo, SD rats; conditions: 1.5% suspension, 30 mg/kg oral
Procedure: (B) In vivo experiment in rats by intravitreous injection of ferrous ion:
(B-1) Evaluation by retinal TBA values
Antioxidative effects of oral administration of a suspension of 2-O-octadecylascorbic acid (30 mg/kg) on the retinal peroxidation induced by intravitreous injection of ferrous sulfate in rats were examined.
Seven weeks old SD rats fasted from the previous day were divided into 2 groups. A 5% solution of gum arabic (control)(2 ml/kg) was administered orally to one group in 3 divided portions. A 1.5% suspension (2 ml/kg) of 2-O-octadecylascorbic acid (30 mg/kg) was administered orally to the other group in 3 divided portions. Two hours after the first administration, rats were anesthetized systemically with ketamine hydrochloride. A 5 mM solution (5 μl) of ferrous sulfate was injected intravitreously into each of the left eyes, and physiological saline (5 μl) was injected intravitreously into each of the right eyes. Each injection was carried out using a microsyringe. One and four hours after the injection, a suspension of 2-O-octadecylascorbic acid or a 5% solution of gum arabic were administered again. Two hours after the third administration (i.e. six hours after the injection of ferrous ion), the rats were sacrificed. The eyeballs were removed, retinal homogenates were prepared from the eyes, and the TBA values and protein were determined.

[4] = 9 hours after ferrous ion injection, compared to control
[5] = 1.5% suspension, mean ± S.D., n=5
[6] = 1.5% suspension, Nos. 1-5 in order
[7] = 5.0% suspension, mean ± S.D., n=3
[8] = 5.0% suspension, Nos. 1-3 in order

CCCCCCCCCCCCCCCCCCOC1=C(O)[C@@H]([C@@H](O)CO)OC1=O [2-O-octadecylascorbic acid]
inhibitory effect on the peroxidation of the retinal homogenate ([1]; compared with α-tocopherol): more excellent inhibitory effect on the peroxidation of the retinal homogenate than that in the presence of α-tocopherol | Retina: TBA value ([1]; 0.5 mM ferrous chloride, 37° C., 1 hour, mean ± S.D., n=3, p < 0.001 vs control): 0.61 ± 0.04 nM malondialdehyde/mg protein | Inhibitory ratio ([1]; ferrous chloride control = 0, blank = 100, 60 min): 94.9% | decrease of the amplitude of a-wave and b-wave (retina (ERG in rats); [4]): more marked tendency to inhibit the decrease of the amplitude of a-wave and b-wave | delay of the b-wave latency (retina (ERG in rats); [4]): the delay of the b-wave latency was significantly inhibited | recovery of amplitude (retina (ERG in rats); 24 hours after ferrous ion injection, both groups): The amplitude was not recovered even in the determination after 24 hours | delay of the latency and decrease of the amplitude of a-wave and b-wave (retina (ERG in rats); from 6 hours after ferrous ion injection, both groups): strongly observed in both groups | examples (animals) with remarkably observed retinal lesions (retina (rat) [2]; 1.5% suspension): four of five examples | Vacuolation of retinal pigment epithelium (retina (rat) [2]; 1.5% suspension (90 mg/kg/day oral on day of exposure, then 30), Nos. 1-5 in order): + | Thickness of outer nuclear layer, lesion (retina (rat) [2]; [5]): 16.0 ± 7.2 µM | Thickness of outer nuclear layer, near optic disk (retina (rat) [2]; [5]): 39.0 ± 8.8 µM | Thickness of retinal entire layer, lesion (retina (rat) [2]; [5]): 88.5 ± 22.3 µM | Thickness of retinal entire layer, near optic disk (retina (rat) [2]; [5]): 135.5 ± 27.9 µM | Disarrangement or vacuolation of inner and outer segments of visual cells (retina (rat) [2]; [6]): ++ (4×) and + | Infiltration of macrophage (retina (rat) [2]; [6]): ++ (4×) and - | Pyknosis and nuclear disappearance in outer nuclear layer (retina (rat) [2]; [6]): ++ (4×) and ± | Thinning of retinal entire layer (retina (rat) [2]; [6]): ++ (4×) and - | examples (animals) with remarkably observed retinal lesions (retina (rat) [2]; 5.0% suspension): one of three examples | Vacuolation of retinal pigment epithelium (retina (rat) [2]; 5.0% suspension (300 mg/kg/day oral on day of exposure, then 100), Nos. 1-3 in order): - and + (2×) | thickness of the retinal entire layer near optic disk (in words) (retina (rat) [2]; 5.0% suspension, compared with control): significantly larger than that in the control group | severity of lesions (retina (rat) [2]; 5.0% suspension, compared with control group): not so severe as those of the control group | Thickness of outer nuclear layer, lesion (retina (rat) [2]; [7]): 19.2 ± 11.3 µM | Thickness of outer nuclear layer, near optic disk (retina (rat) [2]; [7]): 48.3 ± 1.4 µM | Thickness of retinal entire layer, lesion (retina (rat) [2]; [7]): 84.2 ± 16.3 µM | Disarrangement or vacuolation of inner and outer segments of visual cells (retina (rat) [2]; [8]): ± and + and ++ | Infiltration of macrophage (retina (rat) [2]; [8]): - (2×) and ++ | Pyknosis and nuclear disappearance in outer nuclear layer (retina (rat) [2]; [8]): ± and + and ++ | Thinning of retinal entire layer (retina (rat) [2]; [8]): - and + and ++ | thickness of the outer nuclear layer near optic disk (in words) (retina (rat) [2]; suspension administered groups, compared with control): tends to be larger than that in the control group | increase in the TBA value of the retina induced by intravitreous injection of ferrous ion (retina (rat) [3]): significantly inhibited the increase in the TBA value of the retina | Retina: TBA value, left eye (retina (rat) [3]; left eye (ferrous sulfate injected), mean ± S.D., n=6, p < 0.01 vs control): 0.47 ± 0.11 nM malondialdehyde/mg protein | Retina: TBA value, right eye (retina (rat) [3]; right eye (physiological saline injected), mean ± S.D., n=6): 0.36 ± 0.06 nM malondialdehyde/mg protein
